Where two headings read alike, the source gives them in different places.
What was measured:
Experiment in all cases: Greenhouse test, pre-emergence treatment
[1] = system: ALOMY; format: in vivo, Alopecurus myosuroides; conditions: Alopecurus myosuroides, pre-emergence, 480 h, ALOMY, pre-emergence, read-out: observed % activity 20 DAT
Summary of the method: (§1)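 Seeds were sown in loamy sand with approximately 3.0% humus, then sprayed at once with actives suspended or emulsified in water. Pots were watered, hooded until rooting, held at 10-25° C. or 20-35° C. by species for 2 to 4 weeks, and scored 0 (no damage) to 100 (no emergence/complete destruction).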

[2] = system: APESV; format: in vivo, Apera spica-venti; conditions: Apera spica-venti, 480 h, APESV, use rate 3.125 g ai/ha, 20 DAT, read-out: observed % activity 20 DAT
Summary of the method: as §1

[3] = system: ECHCG; format: in vivo, Echinocloa crus-galli; conditions: Echinochloa crus-galli, 480 h, ECHCG, use rate 3.125 g ai/ha, 20 DAT, read-out: observed % activity 20 DAT
Summary of the method: as §1

[4] = system: POLCO; format: in vivo, Polygonum convolvulus; conditions: Fallopia convolvulus, pre-emergence, 480 h; for inhibition at 6.25 g/ha: use rate 6.25 g ai/ha
Summary of the method: as §1

[5] = system: SETFA; format: in vivo, Setaria faberi; conditions: Setaria faberi, 480 h, SETFA, individual, read-out: observed % activity 20 DAT
Summary of the method: as §1

[6] = system: BRADC; format: in vivo, Brachiaria decumbens; conditions: Urochloa decumbens, pre-emergence, 480 h, pre-emergence, 36 g ai/ha; read-out: observed % activity 20 DAT
Summary of the method: as §1

[7] = system: COMBE; format: in vivo, Commelina benghalensis; conditions: Commelina benghalensis, pre-emergence, 480 h
Summary of the method: as §1

[8] = system: EPHHL; format: in vivo, Euphorbia heterophylla; conditions: Euphorbia heterophylla, pre-emergence, 480 h, 20 DAT, read-out: observed % activity
Summary of the method: as §1

[9] = system: GALAP; format: in vivo, Galium aparine; conditions: Galium aparine, pre-emergence, 480 h, pre-emergence, read-out: observed % activity 20 DAT
Summary of the method: as §1

[10] = system: GERPU; format: in vivo, Geranium pusillum; conditions: Geranium pusillum, pre-emergence, 480 h, 20 DAT, read-out: observed % activity
Summary of the method: as §1

[11] = system: KCHSC; format: in vivo, Kochia scoparia
Summary of the method: as §1

[12] = system: LOLMU; format: in vivo, Lolium multiflorum; conditions: Lolium multiflorum, pre-emergence, 480 h, LOLMU, pre-emergence, individual, use rate 6.25 g ai/ha; read-out: observed % activity 20 DAT
Summary of the method: as §1

[13] = 5 g ai/ha, 20 DAT, read-out: observed % activity
[14] = 10 g ai/ha, 20 DAT, read-out: observed % activity
[15] = 10 g ai/ha, read-out: observed % activity 20 DAT

CC(C)N(C)S(=O)(=O)NC(=O)c1cc(-n2c(=O)cc(C(F)(F)F)n(C)c2=O)c(F)cc1Cl [Saflufenacil, saflufenacil]
inhibition at 6.25 g/ha ([1]; individual, use rate 6.25 g ai/ha): 0%
inhibition at 12.5 g/ha ([1]; individual, use rate 12.5 g ai/ha): 0%
inhibition at 3.125 g/ha ([1]; use rate 3.125 g ai/ha, 20 DAT): 0%
inhibition at 3.125 g/ha [2]: 0%
inhibition at 3.125 g/ha [3]: 0%
inhibition at 5 g/ha [4, 13]: 60%
inhibition at 10 g/ha [4, 14]: 65%
inhibition at 6.25 g/ha ([4]; POLCO, individual, read-out: observed % activity 20 DAT): 70%
inhibition at 10 g/ha ([4]; POLCO, individual, use rate 10 g ai/ha, read-out: observed % activity 20 DAT): 25%
inhibition at 12.5 g/ha ([4]; POLCO, individual, use rate 12.5 g ai/ha, read-out: observed % activity 20 DAT): 85%
inhibition at 10 g/ha [4, 15]: 25%
inhibition at 6.25 g/ha ([4]; POLCO, 20 DAT, read-out: observed % activity 20 DAT): 70%
inhibition at 6.25 g/ha ([5]; use rate 6.25 g ai/ha): 0%
inhibition at 12.5 g/ha ([5]; use rate 12.5 g ai/ha): 0%
inhibition at 36 g/ha [6]: 90%
inhibition at 5 g/ha [7, 13]: 65%
inhibition at 10 g/ha [7, 14]: 98%
inhibition at 5 g/ha ([7]; COMBE, individual, use rate 5 g ai/ha, read-out: observed % activity 20 DAT): 0%
inhibition at 10 g/ha ([7]; COMBE, individual, use rate 10 g ai/ha, read-out: observed % activity 20 DAT): 15%
inhibition at 5 g/ha ([7]; 5 g ai/ha, read-out: observed % activity 20 DAT): 0%
inhibition at 10 g/ha [7, 15]: 15%
inhibition at 5 g/ha ([8]; 5 g ai/ha): 80%
inhibition at 10 g/ha ([8]; 10 g ai/ha): 95%
inhibition at 5 g/ha ([9]; GALAP, individual, use rate 5 g ai/ha): 25%
inhibition at 10 g/ha ([9]; GALAP, individual, use rate 10 g ai/ha): 50%
inhibition at 5 g/ha ([9]; 5 g ai/ha): 25%
inhibition at 10 g/ha ([9]; 10 g ai/ha): 50%
inhibition at 5 g/ha ([10]; 5 g ai/ha): 25%
inhibition at 10 g/ha ([10]; 10 g ai/ha): 25%
observed % activity ([11]; 5 g ai/ha, 20 DAT): 85%
inhibition at 5 g/ha ([11]; Bassia scoparia, pre-emergence, 480 h, 5 g ai/ha, 20 DAT, read-out: observed % activity): 70%
inhibition at 5 g/ha ([11]; Bassia scoparia, pre-emergence, 480 h, KCHSC, pre-emergence, individual, use rate 5 g ai/ha, read-out: observed % activity 20 DAT): 70%
inhibition at 6.25 g/ha ([11]; Bassia scoparia, pre-emergence, 480 h, KCHSC, pre-emergence, individual, use rate 6.25 g ai/ha, read-out: observed % activity 20 DAT): 30%
inhibition at 10 g/ha ([11]; Bassia scoparia, pre-emergence, 480 h, KCHSC, pre-emergence, individual, use rate 10 g ai/ha, read-out: observed % activity 20 DAT): 65%
inhibition at 12.5 g/ha ([11]; Bassia scoparia, pre-emergence, 480 h, KCHSC, pre-emergence, individual, use rate 12.5 g ai/ha, read-out: observed % activity 20 DAT): 70%
inhibition at 5 g/ha ([11]; Bassia scoparia, pre-emergence, 480 h, pre-emergence, 5 g ai/ha, read-out: observed % activity 20 DAT): 70%
inhibition at 10 g/ha ([11]; Bassia scoparia, pre-emergence, 480 h, pre-emergence, 10 g ai/ha, read-out: observed % activity 20 DAT): 65%
inhibition at 6.25 g/ha [12]: 0%
